Results on 2 compounds are retold here after patent US4864023A, “Pyrido(3,2,1-IJ)-1,3,4-benzoxadiazine derivatives” (priority 1988, dated 1989).

Counter-ions that a name gives are not always drawn.

The assay has as its system Escherichia coli ML4707. Nature of the assay: in vivo therapeutic efficacy, lethal systemic infection in mice. To be noted: E. coli ML4707 i.p. infection, ICR mice, p.o. at time of injection, mortality 5 days. The procedure:
The in vivo antibacterial activities of pyrido[3,2,1-ij]-1,3,4-benzoxadiazine derivatives prepared by Example 5, Example 30, Example 65 and Example 66 as mentioned below were tested against lethal infection of Escherichia coli ML4707, Pseudomonas aeruginosa 4au542 and Streptococcus pneumoniae 6-001. ICR mice weighing about 20 g were infected by intraperitoneal injection of a corresponding bacterial suspension. The test compounds were administered orally or subcutaneously at the time of injection. […] The respective 50% effective dose (ED50, mg/kg) which protects 50% of the animals from death caused by infection, is shown in Table 3.

Turning to `CCOC(=O)c1cn2c3c(c(N4CCC(N)C4)c(F)cc3c1=O)OCN2C` (centres unmarked) [Example 65, ethyl 10-(3-amino-1-pyrrolidinyl)-9-fluoro-3-methyl-7-oxo-2,3-dihydro-7H-pyrido[3,2,1-ij]-1,3,4-benzoxadiazine-6-carboxylate], the ED50 (Escherichia coli, ML4707, po, 120 h, read-out: 50% effective dose (ED50)) worked out at 1.12 mg/kg.

Take `CN1COc2c(N3CCC(N)C3)c(F)cc3c(=O)c(C(=O)O)cn1c23` (centres unmarked) [Example 66, 10-(3-amino-1-pyrrolidinyl)-9-fluoro-3-methyl-7-oxo-2,3-dihydro-7H-pyrido[3,2,1-ij]-1,3,4-benzoxadiazine-6-carboxylic acid hydrochloride]: the “50% effective dose (ED50)” value (hydrochloride, 7200 min) came out at 0.51 mg/kg.

Usually ED50 stands for the dose that gives a 50% effect, or the effect in half of the subjects.
